Earlier results, collected in patent publication US20230405068A1, “RADIATION-INDUCED FIBROSIS TREATMENT” (Handelsselskabet af 20.10.2020 ApS, priority 2020, published 2023).
Like-named read-outs stand apart in the source and are kept apart here.

Tests used:
[1] = system: radiation-induced skin fibrosis; details: intramuscular injection; humans
[2] = system: radiation-induced skin fibrosis; details: intramuscular injection; pigs
[3] = system: radiation-induced dermatitis; details: rats
[4] = system: radiation-induced dermatitis; details: mice; applied topically

Molecule: N[C@@H](CCC(=O)N[C@@H](CS)C(=O)NCC(=O)O)C(=O)O [glutathione]
- mitochondrial lipid peroxidation (radiation-induced injury): limit mitochondrial lipid peroxidation
- protection from radiation-induced injury (radiation-induced injury): protect from radiation-induced injury

Molecule: Sod1 (Cu—Zn) protein: Sod1 (Cu—Zn) protein given by intramuscular injection
- protection from radiation-induced skin fibrosis [1]: protected
- protection from radiation-induced skin fibrosis [2]: protected

Molecule: NCCCNCCSP(=O)(O)O [amifostine]
- mitochondrial lipid peroxidation (radiation-induced injury): limit mitochondrial lipid peroxidation
- protection from radiation-induced injury (radiation-induced injury): protect from radiation-induced injury

Molecule: CC(=O)N[C@@H](CS)C(=O)O [N-acetylcysteine]
- protection from radiation-induced dermatitis [3]: significantly protects

Molecule: CC1(C)CC[C@]2(NC(=O)C(C)(F)F)CC[C@]3(C)[C@H](C(=O)C=C4[C@@]5(C)C=C(C#N)C(=O)C(C)(C)[C@@H]5CC[C@]43C)[C@@H]2C1 [RTA 408, omaveloxolone]
- protection from radiation-induced dermatitis [4]: allegedly protecting
